Like-named read-outs stand apart in the source and are kept apart here.
Columns and labels:
[1] = target: T1, Breast cancer resistance protein (BCRP) (Rattus norvegicus, UniProt Q80W57); assay: In vivo microdialysis pharmacokinetics of LVFX with BCRP inhibitor Ko143; settings: intravenous, with Ko143 15 mg/kg i.p., Ko143 group, Ko143 15 mg/kg i.p. + LVFX 50 mg/kg; for MRT / AUC(0-inf) / Cmax / half-life / AUC(0-t): mean ± SD; for MRT / Tmax / AUC(0-inf) / Cmax / half-life: N=5; for AUC(0-t): N=5, read-out: AUC0–180 (converted)
T1 construct: from tissue; host or cells: living rat (blood-brain barrier, choroid plexus)
T1 sequence (Q80W57 1-657): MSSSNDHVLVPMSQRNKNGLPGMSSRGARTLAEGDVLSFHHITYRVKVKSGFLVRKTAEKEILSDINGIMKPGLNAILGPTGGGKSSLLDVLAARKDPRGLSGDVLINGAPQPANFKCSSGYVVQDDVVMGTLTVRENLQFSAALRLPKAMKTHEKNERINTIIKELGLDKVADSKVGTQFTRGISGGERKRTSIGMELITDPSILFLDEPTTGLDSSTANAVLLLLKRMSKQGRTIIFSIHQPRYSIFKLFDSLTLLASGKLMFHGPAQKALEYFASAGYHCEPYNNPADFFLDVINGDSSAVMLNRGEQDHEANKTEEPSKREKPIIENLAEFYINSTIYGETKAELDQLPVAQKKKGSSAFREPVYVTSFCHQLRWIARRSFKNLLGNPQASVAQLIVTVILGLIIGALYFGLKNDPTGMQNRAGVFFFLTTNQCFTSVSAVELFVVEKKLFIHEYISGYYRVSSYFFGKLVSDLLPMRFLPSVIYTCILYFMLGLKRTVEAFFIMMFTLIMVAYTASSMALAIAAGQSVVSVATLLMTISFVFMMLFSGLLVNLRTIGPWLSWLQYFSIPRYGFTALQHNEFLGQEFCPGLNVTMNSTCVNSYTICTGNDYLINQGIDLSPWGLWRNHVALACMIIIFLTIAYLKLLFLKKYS
Procedure: (§1) On the day of surgery, rats were anesthetized using inhaled isoflurane via a facemask. The rats were placed in a stereotaxic frame (Gene&I), and the body temperature was maintained with a homoeothermic blanket set at 37°C. A midline incision was made to expose the skull. According to the Paxinos and Watson atlas, two microdialysis intracerebral guide cannulae (Eicom Co.) were implanted into the hippocampus CA1 region (Hp‐CA1 coordinates: AP −4.16 mm; ML −2.2 mm; DV −2.9 mm) and lateral ventricle (LV coordinates: AP −1.4 mm; ML +2.2 mm; DV −3.4 mm). Fixed to the skull using a screw and dental cement. After 3 days of recovery, the rats were anesthetized with isoflurane again. An intravascular probe (TP‐100‐20; 20 mm, Eicom Co.) was implanted into the jugular vein toward the right atrium. After the blood microdialysis probe was positioned within the jugular vein, the pipeline was connected to perfuse with ACD solution (citric acid 3.5 mM; sodium citrate 7.5 mM; dextrose 13.6 mM) at a flow rate of […], and the Hamilton microinjection pump was used for continuous perfusion. After stopping isoflurane inhalation, the rats were allowed to wake up naturally on the homoeothermic blanket. The awake rats were placed in a device that allowed them to move freely. Animals were allowed to recover for an additional 24 h.
(§2) All microdialysate concentrations (C m) from the hippocampal ECF and lateral ventricle CSF were converted to the unbound drug concentration (C u) at the target site using the following formula: C u = C m/R dial.
(§3) A total of 32 rats were randomly divided into the following groups: • Control group, N = 12: vehicle solution + LVFX (50 mg/kg). • TAR group, N = 5: Tariquidar (8 mg/kg) + LVFX (50 mg/kg). • Ko143 group, N = 5: Ko143 (15 mg/kg) + LVFX (50 mg/kg). • MK571 group, N = 5: MK571 (20 mg/kg) + LVFX (50 mg/kg). • PRO group, N = 5: Probenecid (50 mg/kg) + LVFX (50 mg/kg).
(§4) Levofloxacin was freshly dissolved in isotonic saline and administered via tail vein injection. Thirty minutes before LVFX administration, the intervention drugs of each group were injected intraperitoneally. To reduce the possible effect of solvents on BBB or BCSFB permeability of LVFX, we prioritized water as the solvent. However, Tariquidar and Ko143 are insoluble in water, and a cosolvent must be used to prepare agents that animals can tolerate. According to the different physicochemical properties of these four inhibitors, the preparation of each transporter inhibitor solution in this experiment was as follows. • P‐glycoprotein (P‐gp) inhibitor Tariquidar[22]: Tariquidar was freshly dissolved in DMSO to 8 mg/ml and then diluted to 4 mg/ml with a solution containing 10% Tween‐80, 25% PEG300, and 65% sterile water. • Breast cancer resistance protein (BCRP) inhibitor Ko143[23]: Ko143 was freshly dissolved in DMSO to 15 mg/ml and then diluted to 7.5 mg/ml with a solution containing 10% Tween‐80, 25% PEG300, and 65% sterile water. • Multidrug resistance‐associated proteins (MRPs) inhibitor MK571[24]: MK571 sodium salt hydrate was dissolved in 1.25% (w/v) aq sodium hydrogen carbonate (NaHCO3) solution to obtain a concentration of 10 mg/ml. • Organic anion transporters (OATs) inhibitor probenecid[25]: Probenecid was dissolved in NaOH (pH = 9.0–9.2) alkalized physiological saline to obtain a concentration of 25 mg/ml.
(§5) The pipelines where the blood and brain probes were installed were perfused at the speed of 2 μl/min with ACD solution and ACSF, respectively. Two brain probes were inserted into guide cannulas of the target site and allowed to equilibrate for 1 h. Subsequently, the rats were treated according to their corresponding groups in the device where they could move freely. Microdialyses samples were collected every 15 min using a fraction collector (EFC‐96, Eicom Co.) for 3 h and stored at 4°C until analysis. Finally, rats were anesthetized and decapitated, and their brain was harvested.

[2] = tested on: T2, Breast cancer resistance protein (BCRP); assay: as above; settings: rat, intravenous, with Ko143 15 mg/kg i.p., 30 min before LVFX, Ko143 group, Ko143 15 mg/kg i.p. + LVFX 50 mg/kg, N=5
T2 construct: from tissue; host or cells: living rat (blood-brain barrier, choroid plexus)
Procedure: as §1, §2, §3, §4, §5

[3] = CSF (lateral ventricle microdialysate, unbound), CSF
[4] = brain ECF (hippocampal microdialysate, unbound), 30 min before LVFX, brain ECF

C[C@H]1COc2c(N3CCN(C)CC3)c(F)cc3c(=O)c(C(=O)O)cn1c23 [LVFX, Levofloxacin]
MRT ([1]; CSF (lateral ventricle microdialysate, unbound), 30 min before LVFX, CSF): 69.6 min | Tmax [1, 3]: 15 min | AUC(0-inf) [1, 3]: 4940 ng·h/mL | Cmax [1, 3]: 4260 ± 320 ng/mL | half-life [1, 3]: 41.8 ± 6.9 min | AUC(0-t) [1, 3]: 4650 ng·h/mL | Tmax [1, 4]: 15 min | AUC(0-inf) [1, 4]: 4650 ng·h/mL | Cmax [1, 4]: 3710 ± 250 ng/mL | MRT [1, 4]: 75.5 min | half-life [1, 4]: 44.4 ± 10.4 min | AUC(0-t) [1, 4]: 4280 ng·h/mL | Tmax ([1]; 30 min before LVFX, blood): 15 min | AUC(0-inf) ([1]; 30 min before LVFX, blood): 11900 ng·h/mL | Cmax ([1]; 30 min before LVFX, blood): 11000 ± 770 ng/mL | MRT ([1]; 30 min before LVFX, blood): 67.7 min | half-life ([1]; 30 min before LVFX, blood): 42.8 ± 7.7 min | AUC(0-t) ([1]; 30 min before LVFX, blood): 11100 ng·h/mL | Kp ([2]; CSF / blood (unbound, microdialysate), AUCu,CSF/AUCu,blood, read-out: K p,uu,CSF): 0.424 ± 0.035 | Kp ([2]; brain ECF / blood, AUCu,ECF/AUCu,blood, read-out: K p,uu,ECF): 0.389 ± 0.024
